Structures can show the parent of a compound that is named as a salt. Where two headings read alike, the source gives them in different places.
Assays:
[1] = biological target: T1, cardiac sodium channel (Rattus norvegicus, UniProt P15389); test: ECG parameters in anesthetized rats (RSh, PR, QRS; cardiac sodium channel blockade); format: in vivo; settings: i.v. bolus; for ED25 PR (dose required to produce a 25% increase): P-R interval
Experimental: Rats weighing 200-250 gms were used in this example. Animals were anesthetized with 60 mg/kg pentobarbitone i.p. The carotid artery and jugular vein were cannulated for measurement of blood pressure and drug injection, respectively. ECG was recorded by insertion of electrodes placed along the anatomical axis of the heart. All compounds were given as bolus injections.
Various ECG parameters were measured. The most sensitive of these for measuring sodium channel blockade is RSh (J. Pharmacology Methods 27:51-58 (1992)). Table 4 describes the results of the tests as ED25 (micromoles/kg) which are the doses required to produce a 25% increase in the parameter measured (ne=not estimated). The increases in P-R interval, QRS interval and RSh indicate cardiac sodium channel blockade while the increase in Q-T interval indicates ancillary cardiac potassium channel blockade which is the property of a type 1 a antiarrhythmic.

[2] = system: cardiac potassium channel; test: ECG parameters in anesthetized rats (QT; ancillary cardiac potassium channel blockade); format: in vivo, rat; settings: i.v. bolus, Q-T interval
Experimental: Various ECG parameters were measured. […] The increases in P-R interval, QRS interval and RSh indicate cardiac sodium channel blockade while the increase in Q-T interval indicates ancillary cardiac potassium channel blockade which is the property of a type 1 a antiarrhythmic.

[3] = biological target: T1, cardiac sodium channel; test: Electrical stimulation of left ventricle in rats (iT, VFT; cardiac sodium channel blockade); format: in vivo; settings: infusion rate for 25% increase from control; anesthetized rats
Experimental: Rats were prepared according to the preceding procedure. Two silver stimulating electrodes were inserted through the chest wall and implanted in the left ventricle. Square wave stimulation was used to determine threshold current for capture, ventricular fibrillation threshold current, and effective refractory period (Howard, P. G. and Walker, M. J. A., Proc. West. Pharmacol. Soc. 33:123-127 (1990)). Table 5 contains ED25 values for these indices of cardiac sodium channel blockade, where the ED25 is the infusion rate in micromoles/kg/minute of compound required to elicit a 25% increase from control. The increases in refractoriness indicate ancillary blockade of potassium channels. The threshold current for capture is represented by "iT". The fibrillation threshold current is represented by "VFT". The effective refracting period is represented by "ERP".

[4] = system: potassium channels; test: Electrical stimulation of left ventricle in rats (ERP; ancillary blockade of potassium channels); format: in vivo, rat; settings: infusion rate for 25% increase from control; anesthetized rats
Description: Two silver stimulating electrodes were inserted through the chest wall and implanted in the left ventricle. Square wave stimulation was used to determine threshold current for capture, ventricular fibrillation threshold current, and effective refractory period (Howard, P. G. and Walker, M. J. A., Proc. West. Pharmacol. Soc. 33:123-127 (1990)). […] The threshold current for capture is represented by "iT". The fibrillation threshold current is represented by "VFT". The effective refracting period is represented by "ERP".

[5] = biological target: T1, cardiac sodium channel; test: Whole cell voltage clamp tests, single isolated adult rat cardiac cells; format: cell-based
Experimental: In order to directly measure cardiac sodium channel blockade, standard whole cell voltage clamp tests were carried out using single isolated adult rat cardiac cells. Results in the form of EC50 values, which are micromolar concentrations required to produce a 50% reduction in sodium current, are presented in Table 6.

[6] = system: phrenic nerve diaphragm; test: Nerve conduction blockade in vitro, phrenic nerve diaphragm; settings: Rattus norvegicus, read-out: concentration at which the twitch response from electrical stimulation is reduced to 50% of control value
Experimental: In order to establish the potency of the compounds to block nerve conduction, two in vitro assays were used. The first was the phrenic nerve diaphragm of the rat. […] Nerve blockade in these preparations is indicative of local anesthetic activity. Compounds were administered to the bath solution in increasing concentrations while the preparations were being stimulated with regular electrical impulses.

[7] = system: hypogastric nerve vas deferens; test: Nerve conduction blockade in vitro, hypogastric nerve vas deferens; settings: read-out: concentration at which the twitch response from electrical stimulation is reduced to 50% of control value
Experimental: In order to establish the potency of the compounds to block nerve conduction, two in vitro assays were used. The first was the phrenic nerve diaphragm of the rat. The second was the hypogastric nerve vas deferens. Nerve blockade in these preparations is indicative of local anesthetic activity. Compounds were administered to the bath solution in increasing concentrations while the preparations were being stimulated with regular electrical impulses.

[8] = system: conscious rats subject to coronary artery occlusion; test: Antiarrhythmic efficacy: incidence of cardiac arrhythmias in conscious rats subject to coronary artery occlusion; format: in vivo, rat; settings: score 0-9 per Table 2, 30 min after occlusion
Experimental: Antiarrhythmic efficacy was assessed by investigating the effect of a compound on the incidence of cardiac arrhythmias in conscious rats subject to coronary artery occlusion. Rats weighing 200-300 gms were subjected to preparative surgery and assigned to groups in a random block design. In each case, the animal was anesthetized with halothane during surgical preparation. The left femoral artery was cannulated for measurement of mean arterial blood pressure and withdrawal of blood samples. The left femoral vein was also cannulated for injection of drugs. The thoracic cavity was opened and a polyethylene occluder loosely placed around the left anterior descending coronary artery. The thoracic cavity was then closed. ECG was recorded by insertion of electrodes placed along the anatomical axis of the heart. All cannulae and electrode leads were exteriorized in the mid scapular region. In random and double-blind manner, about 0.5 to 2 hours post-surgery, an infusion of vehicle, or the compound to be tested was given. After 15 minutes infusion, the occluder was pulled so as to produce coronary artery occlusion. ECG, arrhythmias, blood pressure, heart rate and mortality were monitored for 30 minutes after occlusion. Arrhythmias were recorded as ventricular tachycardia (VT) and ventricular fibrillation (VF) and scored according to Curtis, M. J. and Walker, M. J. A., Cardiovasc.
VPB=ventricular premature beats
VT=ventricular tachycardia
VF=ventricular fibrillation
Occlusion is associated with increases in R-wave height and "S-T" segment elevation; and an occluded zone (measured after death by cardiogreen dye perfusion) in the range of 25%-50% of total left-ventricular weight.

[9] = system: central nervous system of the rat; test: Opioid-like effects during in vivo tests
Description: This provides evidence that some of the compounds may have analgesic activity through activation of opioid receptors. Examination of members of this series of compounds by analgesic assays and binding studies show the presence of opioid binding and activity.

[10] = whole cell voltage clamp, isolated adult rat cardiac cells, read-out: EC50 (concentration required to produce a 50% reduction in sodium current)
[11] = phrenic nerve diaphragm, in vitro
[12] = hypogastric nerve vas deferens, in vitro

T1 sequence (P15389 whole entry): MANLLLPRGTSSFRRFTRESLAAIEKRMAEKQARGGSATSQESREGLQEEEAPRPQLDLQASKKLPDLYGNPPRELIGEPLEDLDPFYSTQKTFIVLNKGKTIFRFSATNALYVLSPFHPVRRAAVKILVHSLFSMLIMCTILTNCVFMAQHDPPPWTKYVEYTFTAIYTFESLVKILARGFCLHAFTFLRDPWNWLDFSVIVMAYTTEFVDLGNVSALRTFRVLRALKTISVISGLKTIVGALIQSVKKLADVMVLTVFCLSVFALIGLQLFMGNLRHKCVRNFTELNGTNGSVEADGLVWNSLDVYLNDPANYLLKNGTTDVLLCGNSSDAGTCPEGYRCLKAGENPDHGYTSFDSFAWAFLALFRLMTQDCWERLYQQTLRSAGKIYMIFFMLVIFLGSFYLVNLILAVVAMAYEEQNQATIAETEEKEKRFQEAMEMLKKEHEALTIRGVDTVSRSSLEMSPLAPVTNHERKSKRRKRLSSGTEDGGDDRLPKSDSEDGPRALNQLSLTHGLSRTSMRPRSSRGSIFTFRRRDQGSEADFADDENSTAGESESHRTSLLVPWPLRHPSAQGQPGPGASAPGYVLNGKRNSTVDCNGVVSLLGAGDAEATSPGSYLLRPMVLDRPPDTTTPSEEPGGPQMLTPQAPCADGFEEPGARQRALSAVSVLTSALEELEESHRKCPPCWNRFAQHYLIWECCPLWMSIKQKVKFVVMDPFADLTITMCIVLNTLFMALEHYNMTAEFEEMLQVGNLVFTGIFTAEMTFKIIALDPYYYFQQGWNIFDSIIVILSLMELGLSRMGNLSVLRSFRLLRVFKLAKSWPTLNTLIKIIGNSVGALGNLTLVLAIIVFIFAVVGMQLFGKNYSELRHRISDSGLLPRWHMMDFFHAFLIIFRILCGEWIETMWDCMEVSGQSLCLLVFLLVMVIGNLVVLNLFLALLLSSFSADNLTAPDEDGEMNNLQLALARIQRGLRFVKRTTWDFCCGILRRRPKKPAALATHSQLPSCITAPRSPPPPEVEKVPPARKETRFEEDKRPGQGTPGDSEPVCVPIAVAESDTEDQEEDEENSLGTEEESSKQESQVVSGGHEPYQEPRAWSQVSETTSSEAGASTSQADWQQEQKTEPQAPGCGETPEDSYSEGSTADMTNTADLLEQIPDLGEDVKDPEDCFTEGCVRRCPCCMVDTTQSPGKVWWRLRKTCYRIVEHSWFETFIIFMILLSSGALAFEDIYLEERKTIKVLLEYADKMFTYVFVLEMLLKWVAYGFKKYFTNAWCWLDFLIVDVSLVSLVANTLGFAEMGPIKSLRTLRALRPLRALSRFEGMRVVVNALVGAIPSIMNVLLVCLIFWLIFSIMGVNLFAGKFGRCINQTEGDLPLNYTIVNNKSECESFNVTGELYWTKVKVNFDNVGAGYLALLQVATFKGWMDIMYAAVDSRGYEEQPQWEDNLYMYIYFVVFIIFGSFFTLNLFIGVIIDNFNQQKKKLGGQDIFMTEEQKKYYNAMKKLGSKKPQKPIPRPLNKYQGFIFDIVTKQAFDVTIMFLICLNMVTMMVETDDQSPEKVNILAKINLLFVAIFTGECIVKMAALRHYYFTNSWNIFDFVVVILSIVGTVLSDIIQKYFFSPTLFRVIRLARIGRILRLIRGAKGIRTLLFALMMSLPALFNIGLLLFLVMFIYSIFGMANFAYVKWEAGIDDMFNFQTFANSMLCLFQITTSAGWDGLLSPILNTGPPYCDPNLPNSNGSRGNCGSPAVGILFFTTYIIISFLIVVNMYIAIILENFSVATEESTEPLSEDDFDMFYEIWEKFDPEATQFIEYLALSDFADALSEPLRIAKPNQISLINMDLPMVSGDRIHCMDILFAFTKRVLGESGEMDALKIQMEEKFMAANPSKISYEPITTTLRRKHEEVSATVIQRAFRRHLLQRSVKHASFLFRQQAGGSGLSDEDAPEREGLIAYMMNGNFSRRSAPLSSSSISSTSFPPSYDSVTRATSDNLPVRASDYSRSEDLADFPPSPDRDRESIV

Structure (SMILES)	ED25 PR (dose required to produce a 25% increase) [1] [µmol/kg]	ED25 RSh (dose required to produce a 25% increase) [1] [µmol/kg]	ED25 QT (dose required to produce a 25% increase) [2] [µmol/kg]	ED25 VFT (fibrillation threshold current) [3] [µmol/kg/min]	ED25 iT (threshold current for capture) [3] [µmol/kg/min]	ED25 ERP (effective refractory period) [4] [µmol/kg/min]	EC50 [5] [µM]	IC50 [6] [µM]	IC50 [7] [µM]	AS (arrhythmia score) ([8]; dose 20 micromoles/kg/min infusion)	EC50 [5, 10] [µM]	IC50 [6, 11] [µM]	IC50 [7, 12] [µM]	AS (arrhythmia score) ([8]; dose 5 micromoles/kg/min infusion)	opioid-like effects on the central nervous system [9]
O=C(COc1ccc(Cl)c(Cl)c1)O[C@@H]1CCCC[C@H]1N1CCCC1 (relative stereo) [Compound #1, (±)-trans-[2-(1-pyrrolidinyl)cyclohexyl](3,4-dichlorophenoxy)acetate monohydrochloride]	17	10	78	3	6	4	200	90	40						
O=C(COc1cccc2ccccc12)O[C@@H]1CCCC[C@H]1N1CCCC1 (relative stereo) [Compound #2, (±)-trans-[2-(1-pyrrolidinyl)cyclohexyl](1-naphthoxy)acetate monohydrochloride]	23	11	53	2	5	3				4	50	120	25		
Cl.O=C(Cc1csc2ccccc12)O[C@@H]1CCCC[C@H]1N1CCOCC1 (racemic) [Compound #6, (±)-trans-[2-(4-morpholinyl)cyclohexyl]benzo[b]thiophene-3-acetate monohydrochloride]		100	79	9	12	7					150	30	100	1.8	induced opioid-like effects on the central nervous system of the rat

Reference: patent US5637583A, “Aminocyclohexylesters and uses thereof” (University of British Columbia, priority 1994, dated 1997)
